According to patent publication US20070191324A1, “Methods for treatment or prophylaxis of aldosterone-mediated pathogenic effects in a subject using an epoxy-steroidal aldosterone antagonist” (priority 1999, published 2007):
Read-outs that look alike come from different tables or passages of the source.

Tests used:
[1] = tested on: aortas of cholesterol-fed rabbits; assay: Endothelial function in diet induced atherosclerosis, aortic isometric tension and superoxide (Example A-10); format: in vivo, New Zealand white rabbits; details: 50 mg/kg twice daily by gavage, 6 weeks
Protocol: Methods: New Zealand white rabbits were randomized to four treatment groups. 32 Rabbits were placed on normal (NC) or 1% cholesterol chow (HC) for a duration of 8 weeks. […] Rabbits were euthanized at the end of 8 weeks and the aortas extracted for isometric tension studies and estimation of superoxide (O2^−) generation in vessel segments by lucigenin chemiluminescence (250 μM). Vessels were preconstricted with phenylephrine ([…]) to approximately 50% of peak constriction and dose responses to acetylcholine (Ach) and nitroglycerin (NTG) tested.

[2] = Pharmacokinetics and absorption of [14C]eplerenone in the rat (Example A-9); format: in vivo; details: for Cmax: rat, oral 15 mg/kg
Protocol: Plasma, urine and fecal samples were analyzed for total radioactivity.

[3] = Food effect pharmacokinetic studies, Japan and Ex-Japan (Example A-11); format: in vivo, human; details: single 100 mg; for AUC(0-inf) / Cmax / AUC: male, human, in vivo, oral, 100 mg; for AUC: read-out: AUC (0-lqc)
Protocol: The […] trials included (i) a single dose tolerability trial, and (ii) a multiple dose tolerability trial, and (iii) a food effect study.
Both single dose and multiple dose tolerability trials were conducted in Japan utilizing healthy male Japanese subjects. […] Six subjects who received the 100 mg dose also participated in the food effect treatment arm of the single dose tolerability trial.
Table A-11C contains the geometric least squares means for the fed and fasting regimens, the ratios of means and the corresponding 95% confidence intervals (CI) for the ratios of the means for the Japan and Ex-Japan food effect trials.
Each panel consisted of six subjects who were given eplerenone and two subjects who were given placebo.

[4] = tested on: patients with mild-to-moderate hypertension; assay: Eplerenone versus enalapril in essential hypertension, 12-month titration-to-effect (Example D-3); format: in vivo, human
Protocol: The study design is illustrated in FIG. D-6. Patients with mild-to-moderate hypertension (diastolic blood pressure [DBP]≧95 mmHg and <110 mmHg) were randomized to receive initially EPL 50 mg QD (n=253) or ENAL 10 mg QD (n=246). If DBP ≧90 mmHg at Weeks 4, 8, 12, 16, or 20, the dose of study medication was up-titrated incrementally to EPL 100 mg and 200 mg QD, or ENAL 20 mg and 40 mg QD. […] At 24 wks and 12 months, changes in BP, RAAS hormone profile, urinary albumin excretion (urinary albumin: creatinine ratio [UACR]), laboratory tests, safety, and adverse events (AEs) were assessed.

[5] = tested on: L-NAME/Angiotensin II/NaCl-treated rats; assay: L-NAME/Angiotensin II/NaCl model of cardiac and renal injury (Example A-1); format: in vivo, Male Wistar rats
Protocol: Animals. Male Wistar rats (n=44), weighing 200 to 225 grams, and obtained from Charles River Laboratories (Wilmington, Mass.) were used in the study. All animals were housed in a room lighted 12 hours per day at an ambient temperature of 22±1° C. Animals were allowed one week to recover after arrival and had free access to Purina Lab Chow 5001 (Ralston Purina Inc, St. Louis, Mo.) and tap water until the initiation of the experiment. After initiation of the protocols, animals in all groups were placed in individual metabolic cages, handled and weighed daily. Twenty-four hour fluid intake, food intake and urine output were measured daily. […] On day 14 of L-NAME treatment, animals were decapitated, trunk blood was collected into chilled tubes containing ethylene diamine tetraacetic acid and the heart and kidneys were removed, blotted dry and immediately weighed. […] Drugs. Eplerenone was supplied by G.D. Searle Pharmaceuticals (St. […] Dexamethasone was dissolved in sesame oil and administered as a single subcutaneous dose (12 μg/kg/day) every day. This dose of dexamethasone has been reported to, maintain normal weight gain, glomerular filtration rate, and fasting plasma glucose and insulin levels in adrenalectomized rats. Stanton, B., Giebisch G et al. J. Clin. Invest 1985 75:1317-1326. The experiment was concluded on day 14 of L-NAME treatment. […] (Hou J et al. J. Clin. Invest 1995 96:2469-2477. […] This lower dose induced lesions in stroke-prone spontaneously hypertensive rats. (Rocha R et al. […] Dexamethasone, aldosterone and L-NAME were purchased from Sigma Chemical Co. (St. Louis, Mo.). […] Surgical Procedure. […] Bilateral adrenalectomy was performed using a dorsolumbar approach, making separate incisions on each side. […] No post operative deaths occurred. Assays and Analyses. Systolic blood pressure was measured in awake animals by tail-cuff plethysmography using a Natsume KN-210 manometer and tachometer (Peninsula Laboratories Inc, Belmont, Calif.). Rats were warmed at 37° C. for 10 minutes and allowed to rest quietly in a Lucite chamber before measurement of blood pressure. Urinary protein concentration was determined in urine collected on the last day of the experiment using the sulfosalicylic acid turbidity method. […] Plasma aldosterone concentration was determined using a standard radioimmunoassay-kit from Diagnostic Products Co. (Los Angeles, Calif.). Plasma renin activity (“PRA”) was determined by radioimmunoassay detection of generated angiotensin I (DiaSorin Inc., Stillwater, Minn.). Histology. Hearts were stained with collagen specific dye Sirius red for determination of fibrosis as reported elsewhere. (Young M et al. Am. J. Physiol 1995 269:[…]-[…]). Interstitial collagen was determined using an automated image analyzer. The hearts were also stained with hematoxylin and eosin for light microscopic analysis. Two or three slices of different sections of the heart containing both right and left ventricle were analyzed from each animal. […] Glomerular damage, when present, was characterized as the presence of either segmental or global sclerosis with ischemic or thrombotic changes. Renal arterial and arteriolar damage was categorized as the presence of fibrinoid necrosis of the vascular wall. The renal arterial and arteriolar profiles presenting damage were counted and the number of injured vessels per section was divided by the number of glomeruli in the same section in order to normalize for the amount of tissue examined. […] Statistical analysis. Data were tested for normality using the Kolmogorov-Smirnov test. Systolic blood pressure was analyzed using repeated measures-analysis of variance for time and treatment group. One-way analysis of variance was used for normally distributed data with one grouping variable. Post-hoc analysis was performed using Newman Keuls multiple-comparison test. Data that were not normally distributed were analyzed with the Kruskal-Wallis test. […]

[6] = Week 24, EPL 50-200 mg QD, ENAL 10-40 mg QD titrated

## COC(=O)[C@@H]1CC2=CC(=O)CC[C@]2(C)[C@@]23O[C@@H]2C[C@@]2(C)[C@@H](CC[C@@]24CCC(=O)O4)[C@H]13 [Eplerenone, Pregn-4-ene-7,21-dicarboxylic acid, 9,11-epoxy-17-hydroxy-3-oxo-, γ-lactone, methyl ester, (7α, 11α, 17β)-]
[1]; 1% cholesterol chow
  ED50 Ach: 68 nM
  ED50 NTG: 10 nM
[1]; normal chow
  ED50 Ach: 32 nM
  ED50 NTG: 5.7 nM
[2]; oral aqueous solution 15 mg/kg, male rat
  time of peak plasma concentration of total radioactivity: 1.1 h
[2]; plasma, IV 15 mg/kg, male rat
  clearance: 20.3 mL/min/kg
  half-life: 48.2 min
[2]; plasma, female rats
  Cmax: 3540 ng/mL
[2]; plasma, male rats
  Cmax: 1710 ng/mL
[3]; Ex-Japan
  AUC (0-inf) Mean Ratio fed/fasted: 1.079
[3]; Japan
  AUC (0-inf) Mean Ratio fed/fasted: 1.218
[3]; Ex-Japan, Fasted
  AUC(0-inf): 9060 ng·h/mL
  Cmax: 1620 ng/mL
  AUC: 8940 ng·h/mL
[3]; Ex-Japan, Fed
  AUC(0-inf): 9780 ng·h/mL
  AUC: 9650 ng·h/mL
[3]; Ex-Japan, Fed (high fat meal)
  Cmax: 1320 ng/mL
[3]; Japan, Fasted
  AUC(0-inf): 8970 ng·h/mL
  Cmax: 1310 ng/mL
[3]; Japan, Fed
  AUC(0-inf): 10900 ng·h/mL
  Cmax: 1520 ng/mL
[4]; 12-month study
  patients experiencing coughing: 2.4%
  patients experiencing hyperglycemia: 0.0%
  patients experiencing urinary tract infections (UTI): 0.4%
[4]; 12 months
  DBP change: −13.3 mmHg
  SBP change: −16.5 mmHg
[4]; [6]
  DBP change: −11.2 mmHg
  SBP change: −14.5 mmHg
[4]; Week 24, patients with baseline UACR ≧30 mg/g
  reduction in UACR: −61.5%
[4]; in vivo
  safety and tolerability: safe and well tolerated
[5]; end of experiment (day 14), Epl 100 mg/kg/day p.o., ALDO 40 μg/kg/day in adrenalectomized rats
  HW/BW (cardiac hypertrophy index): significantly reduced cardiac hypertrophy
[5]; end of experiment, Epl 100 mg/kg/day p.o., ALDO 40 μg/kg/day in adrenalectomized rats
  SBP: not appreciably influenced
[5]; end of two-week treatment, eplerenone 100 mg/kg/day p.o.
  urinary protein excretion (24 hour): prevented the development of proteinuria
[5]; eplerenone 100 mg/kg/day p.o., vs L-NAME/Angiotensin II/NaCl
  cardiac injury / myocardial necrosis (histopathology): markedly reduced
